Measurements from ChEMBL document CHEMBL6078645, “Expanding the Solvent/Protein Region Occupation of the Non-Nucleoside Reverse Transcriptase Inhibitor Binding Pocket for Improved Broad-Spectrum Anti-HIV-1 Efficacy: from Rigid Phenyl-Diarylpyrimidines to Flexible Hydrophilic Piperidine-Diarylpyrimidines” (J Med Chem, 2024).
Several values for one entry are separate records, joined by “and”; a condition that tells them apart may be missing. Identical values can stand only once.

Columns and labels:
[1] = tested on: Human immunodeficiency virus 1; test: Antiviral activity against HIV-1 harboring Y188L mutant infected in human MT4 cells assessed as protection against virus-induced cytopathic effect incubated for 5 days by MTT assay; type: functional, organism-based; conditions: Human immunodeficiency virus 1, MT4, 120 h
[2] = tested on: Human immunodeficiency virus 1; test: Antiviral activity against HIV-1 harboring RES056 mutant infected in human MT4 cells assessed as protection against virus-induced cytopathic effect incubated for 5 days by MTT assay; type: functional, organism-based; conditions: Human immunodeficiency virus 1, MT4, 120 h
[3] = tested on: Human immunodeficiency virus 1; test: Antiviral activity against HIV-1 harboring L100I mutant infected in human MT4 cells assessed as protection against virus-induced cytopathic effect incubated for 5 days by MTT assay; type: functional, organism-based; conditions: Human immunodeficiency virus 1, MT4, 120 h
[4] = tested on: Human immunodeficiency virus 1; test: Antiviral activity against HIV-1 harboring E138K mutant infected in human MT4 cells assessed as protection against virus-induced cytopathic effect incubated for 5 days by MTT assay; type: functional, organism-based; conditions: Human immunodeficiency virus 1, MT4, 120 h
[5] = tested on: Human immunodeficiency virus 1; test: Antiviral activity against HIV-1 harboring K103N mutant infected in human MT4 cells assessed as protection against virus-induced cytopathic effect incubated for 5 days by MTT assay; type: functional, organism-based; conditions: Human immunodeficiency virus 1, MT4, 120 h
[6] = tested on: Human immunodeficiency virus 1; test: Antiviral activity against HIV-1 harboring F227L/V106A double mutant infected in human MT4 cells assessed as protection against virus-induced cytopathic effect incubated for 5 days by MTT assay; type: functional, organism-based; conditions: Human immunodeficiency virus 1, MT4, 120 h
[7] = tested on: Human immunodeficiency virus 1; test: Antiviral activity against HIV-1 harboring Y181C mutant infected in human MT4 cells assessed as protection against virus-induced cytopathic effect incubated for 5 days by MTT assay; type: functional, organism-based; conditions: Human immunodeficiency virus 1, MT4, 120 h
[8] = Cytotoxicity against human MT4 cells assessed as reduction in cell viability incubated for 5 days by MTT assay; type: toxicity, cell-based; conditions: MT4 cells, time 5 day
[9] = biological target: T1, Human immunodeficiency virus type 1 reverse transcriptase (Human immunodeficiency virus 1, UniProt Q72547); test: Inhibition of HIV-1 reverse transcriptase
[10] = biological target: T1, Human immunodeficiency virus type 1 reverse transcriptase; test: Inhibition of wildtype recombinant HIV-1 Reverse transcriptase incubated for 40 mins by spectrofluorometric analysis
[11] = Selectivity index, ratio of CC50 for cytotoxicity against human MT4 cells assessed as reduction in cell viability to EC50 for antiviral activity against wild type HIV-1 IIIB infected in human MT4 cells assessed as protection against virus-induced cytopathic effect; type: toxicity, cell-based; conditions: MT4 cells, read-out: Ratio CC50/EC50

| Compound | EC50 [1] [nM] | EC50 [2] [nM] | EC50 [3] [µM] | EC50 [4] [nM] | EC50 [5] [nM] | EC50 [6] [nM] | EC50 [7] [nM] | CC50 at 120 h [8] [µM] | EC50 [9] [nM] | IC50 [10] | selectivity ratio [11] |
| --- | --- | --- | --- | --- | --- | --- | --- | --- | --- | --- | --- |
| Cc1cc(-c2ccc(C#N)cc2)cc(C)c1Oc1nc(NC2CCN(Cc3cccc(C#N)c3)CC2)ncc1CO | 51 | 990 | 0.012 | 55 | 16 | 122 | 18 | 5.81 | 8 | 261 nM | 711 |
| Cc1cc(-c2ccc(C#N)cc2)cc(C)c1Oc1nc(NC2CCN(Cc3ccc(OC(F)(F)F)cc3)CC2)ncc1CO | 479 | 1260 | – | – | – | 1080 | – | 5.96 | 43 | 375 nM and 249 nM | 140 |
| Cc1cc(-c2ccc(C#N)cc2)cc(C)c1Oc1nc(NC2CCN(Cc3ccccc3C#N)CC2)ncc1CO | 200 | 409 | – | – | – | 239 | – | 5.14 | 8 | 226 nM | 628 |
| O=C1Nc2ccc(Cl)cc2[C@@](C#CC2CC2)(C(F)(F)F)O1 [EFAVIRENZ] | – | 579 | 0.055 | 10 | – | – | 8 | > 6.35 | – | – | – |
| Cc1cc(-c2ccc(C#N)cc2)cc(C)c1Oc1nc(NC2CCN(Cc3ccc(S(C)(=O)=O)cc3)CC2)ncc1CO | 58 | 163 | 0.008 | 36 | 18 | 52 | 19 | 9.17 | 8 | 270 nM | 1190 |
| Cc1cc(-c2ccc(C#N)cc2)cc(C)c1Oc1nc(NC2CCN(Cc3ccc(S(=O)(=O)NCCCO)cc3)CC2)ncc1CO | 240 | 268 | – | – | – | 114 | – | 6.32 | 26 | 543 nM | 247 |
| CNC(=O)c1ccc(CN2CCC(Nc3ncc(CO)c(Oc4c(C)cc(-c5ccc(C#N)cc5)cc4C)n3)CC2)cc1 | 551 | 4690 | – | – | – | 1390 | – | 28.1 | 23 | 438 nM | 1250 |
| Cc1cc(-c2ccc(C#N)cc2)cc(C)c1Oc1nc(NC2CCN(Cc3ccc(C(N)=O)cc3)CC2)ncc1CO | 156 | 304 | – | – | – | 260 | – | 21.8 | 7 | 265 nM | 3200 |
| COCCNS(=O)(=O)c1ccc(CN2CCC(Nc3ncc(CO)c(Oc4c(C)cc(-c5ccc(C#N)cc5)cc4C)n3)CC2)cc1 | 47 | 45 | 0.006 | 40 | 7 | 34 | 34 | 6.71 | 6 | 575 nM | 1030 |
| CNC(=O)c1cccc(CN2CCC(Nc3ncc(CO)c(Oc4c(C)cc(-c5ccc(C#N)cc5)cc4C)n3)CC2)c1 | 813 | 5630 | – | – | – | 5000 | – | 20.2 | 40 | 305 nM | 506 |
| Cc1cc(-c2ccc(C#N)cc2)cc(C)c1Oc1nc(NC2CCN(Cc3cccc([N+](=O)[O-])c3)CC2)ncc1CO | 167 | 646 | – | – | – | 291 | – | 7.36 | 9 | 184 nM | 819 |
| COCCNC(=O)c1ccc(CN2CCC(Nc3ncc(CO)c(Oc4c(C)cc(-c5ccc(C#N)cc5)cc4C)n3)CC2)cc1 | 49 | 44 | 0.006 | 19 | 7 | 42 | 23 | 17.6 | 9 | 509 nM | 1860 |
| Cc1cc(-c2ccc(C#N)cc2)cc(C)c1Oc1nc(NC2CCN(Cc3ccc([N+](=O)[O-])cc3)CC2)ncc1CO | 189 | 306 | – | – | – | 540 | – | 3.23 | 8 | 202 nM | 381 |
| COC(=O)c1ccc(CN2CCC(Nc3ncc(CO)c(Oc4c(C)cc(-c5ccc(C#N)cc5)cc4C)n3)CC2)cc1 | 175 | 469 | – | – | – | 175 | – | 13.9 | 12 | 377 nM | 1120 |
| Cc1cc(-c2ccncc2)cc(C)c1Oc1nc(NC2CCN(Cc3ccc(C(=O)NCCCO)cc3)CC2)ncc1CO | – | – | – | – | – | – | – | – | – | 355 nM | – |
| COC(=O)/C=C/c1ccc(CN2CCC(Nc3ncc(CO)c(Oc4c(C)cc(-c5ccc(C#N)cc5)cc4C)n3)CC2)cc1 | 213 | 357 | – | – | – | 329 | – | 88.3 | 7 | 437 nM | 13400 |
| Cc1cc(-c2ccc(C#N)cc2)cc(C)c1Oc1nc(NC2CCN(Cc3ccc(F)cc3)CC2)ncc1CO | 283 | 935 | – | – | – | 558 | – | 5.68 | 9 | – | 629 |
| Cc1cn([C@H]2C[C@H](N=[N+]=[N-])[C@@H](CO)O2)c(=O)[nH]c1=O [ZIDOVUDINE] | 15 | 34 | – | 32 | 29 | 17 | 22 | > 7.49 | 27 | – | > 281 |
| Cc1cc(/C=C/C#N)cc(C)c1Nc1ccnc(Nc2ccc(C#N)cc2)n1 [RILPIVIRINE] | – | – | 0.002 | – | – | – | – | – | 1 | – | – |
| Cc1ccnc2c1NC(=O)c1cccnc1N2C1CC1 [NEVIRAPINE] | 9310 | > 15300 | 1360 | – | 2180 | 6460 | 6920 | > 15.3 | – | – | – |
| Cc1cc(-c2ccc(C#N)cc2)cc(C)c1Oc1nc(NC2CCN(Cc3ccc(S(=O)(=O)NCCO)cc3)CC2)ncc1CO | 228 | 327 | – | – | – | 69 | – | 15.5 | 10 | 413 nM | 1630 |
| Cc1cc(-c2ccc(C#N)cc2)cc(C)c1Oc1nc(NC2CCN(Cc3cccc(C(N)=O)c3)CC2)ncc1CO | 255 | 1210 | – | – | – | 271 | – | 18.4 | 8 | 201 nM | 2230 |
| Cc1cc(-c2ccc(C#N)cc2)cc(C)c1Oc1nc(NC2CCN(Cc3ccc(C(=O)NCCO)cc3)CC2)ncc1CO | – | – | – | – | – | – | – | 16.3 | 14 | – | 1140 |
| Cc1ccc(CN2CCC(Nc3ncc(CO)c(Oc4c(C)cc(-c5ccc(C#N)cc5)cc4C)n3)CC2)cc1 | 237 | 1120 | – | – | – | 810 | – | 3.66 | 13 | 626 nM | 285 |
| Cc1cc(-c2ccc(C#N)cc2)cc(C)c1Oc1nc(NC2CCN(Cc3ccc(C(F)(F)F)cc3)CC2)ncc1CO | 701 | 2600 | – | – | – | 1590 | – | 5.05 | 40 | – | 127 |
